Source: patent US5436254A, “Carbostyril derivatives” (Otsuka Pharmaceutical Company, Ltd., priority 1989, dated 1995)
Read-outs that look alike come from different tables or passages of the source.

Biological target: V1 receptor (Rattus norvegicus, UniProt P30560)
Assay: biochemical
Format: binding

V1 receptor, sequence (P30560 whole entry): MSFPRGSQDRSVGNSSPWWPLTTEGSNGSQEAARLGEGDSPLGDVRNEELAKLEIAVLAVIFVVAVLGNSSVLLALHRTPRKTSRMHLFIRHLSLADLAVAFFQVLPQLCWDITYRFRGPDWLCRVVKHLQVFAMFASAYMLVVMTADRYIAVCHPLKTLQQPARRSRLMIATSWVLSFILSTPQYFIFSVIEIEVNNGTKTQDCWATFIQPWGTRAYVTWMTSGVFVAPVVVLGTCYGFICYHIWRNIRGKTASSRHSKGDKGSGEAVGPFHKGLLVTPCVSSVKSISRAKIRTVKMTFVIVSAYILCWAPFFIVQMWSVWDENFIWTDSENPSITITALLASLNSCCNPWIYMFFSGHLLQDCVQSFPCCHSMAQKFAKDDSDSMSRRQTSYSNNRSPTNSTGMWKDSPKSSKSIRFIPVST

Compound	IC50	IC50 (read-out: IC50)
NC(=O)[C@H](Cc1ccc(O)cc1)NC(=O)CCCCCOc1ccc(C(=O)N2CCC(N3C(=O)CCc4ccccc43)CC2)cc1 [Example 146, 1-{1-[4-{5-[1-(S)-Carbamoyl-2-(4-hydroxyphenyl)]ethylaminocarbonylpentyloxy}benzoyl]-4-piperidinyl}-3,4-dihydrocarbostyril]	0.073 µM	–
CC(C)[C@H](NC(=O)CCCCCOc1ccc(C(=O)N2CCC(N3C(=O)CCc4ccccc43)CC2)cc1)C(N)=O [Example 147, 1-{1-[4-{5-[1-(S)-Carbamoyl-2-methyl]propylaminocarbonylpentyloxy}benzoyl]-4-piperidinyl}-3,4-dihydrocarbostyril]	0.098 µM	–
CN(C)C(=O)CCCOc1ccc(C(=O)N2CCC(N3C(=O)CCc4ccccc43)CC2)cc1 [Example 148, 1-{1-[4-(3-Dimethylaminocarbonylpropoxy)benzoyl]-4-piperidinyl}-3,4-dihydrocarbostyril]	0.36 µM	–
NC(=O)[C@H](Cc1c[nH]cn1)NC(=O)CCCCCOc1ccc(C(=O)N2CCC(N3C(=O)CCc4ccccc43)CC2)cc1 [Example 149, 1-{1-[4-{5-[1-(S)-Carbamoyl-2{4(1H)-imidazoyl}]ethylaminocarbonylpentyloxy)benzoyl]-4-piperidinyl}-3,4-dihydrocarbostyril]	0.15 µM	–
NC(=O)CC[C@H](NC(=O)CCCCCOc1ccc(C(=O)N2CCC(N3C(=O)CCc4ccccc43)CC2)cc1)C(N)=O [Example 150, 1-{1-[4-(5-[1-(S),3-Dicarbamoyl]propylaminocarbonylpentyloxy)benzoyl]-4-piperidinyl}-3,4-dihydrocarbostyril]	0.096 µM	–
CCOc1ccc(C(=O)N2CCC(n3c(=O)ccc4ccc(F)cc43)CC2)c(OC)c1 [Example 151, 1-[1-(2-Methoxy-4-ethoxybenzoyl)-4-piperidinyl]-7-fluorocarbostyril]	–	0.16 µM
CCOc1ccc(C(=O)N2CCC(N3C(=O)C(C(=O)O)Cc4ccccc43)CC2)c(OC)c1 (centres unmarked) [Example 152, 1-[1-(2-Methoxy-4-ethoxybenzoyl)-4-piperidinyl]-3-carboxy-3,4-dihydrocarbostyril]	1.6 µM	–
CSCC[C@H](NC(=O)CCCCCOc1ccc(C(=O)N2CCC(N3C(=O)CCc4ccccc43)CC2)cc1)C(N)=O [Example 153, 1-{1-[4-(5-[1-(S)-Carbamoyl-3-(methylthio)]propylaminocarbonylpentyloxy)benzoyl]-4-piperidinyl}-3,4-dihydrocarbostyril]	0.084 µM	–
O=C(CCCCCOc1ccc(C(=O)N2CCC(N3C(=O)CCc4ccccc43)CC2)cc1)c1nc2cnccc2[nH]1 [Example 154, 1-{1-[4-(5-(Imidazo[4,5-c]pyridine-2-yl)carbonylpentyloxy)benzoyl]-4-piperidinyl}-3,4-dihydrocarbostyril]	0.2 µM	–
CCOc1ccc(C(=O)N2CCC(N3C(=O)CCc4ccc(F)cc43)CC2)c(O)c1 [Example 155, 1-[1-(2-Hydroxy-4-ethoxybenzoyl)-4-piperidinyl]-7-fluoro-3,4-dihydrocarbostyril]	0.057 µM	–
O=C(c1ccc(OCCCCN2CCN(Cc3ccccc3)CC2)cc1)N1CCC(N2C(=O)CCc3ccccc32)CC1 [Example 156, 1-{1-[4-[(4-Benzyl-1-piperazinyl)butoxy]benzoyl]-4-piperidinyl}-3,4-dihydrocarbostyril]	0.18 µM	–
O=C(c1ccc(OCCCCN2CCNCC2)cc1)N1CCC(N2C(=O)CCc3ccccc32)CC1 [Example 157, 1-{1-[4-[4-(1-Piperazinyl)butoxy]benzoyl]-4-piperidinyl}-3,4-dihydrocarbostyril.dioxalate]	0.09 µM	–
CN1CCN(CCCCOc2ccc(C(=O)N3CCC(N4C(=O)CCc5ccccc54)CC3)cc2)CC1 [Example 158, 1-{1-[4-[4-(4-Methyl-1-piperazinyl)butoxy]benzoyl]-4-piperidinyl}-3,4-dihydrocarbostyril.dioxalate]	0.1 µM	–
CS(=O)(=O)N1CCN(CCCCOc2ccc(C(=O)N3CCC(N4C(=O)CCc5ccccc54)CC3)cc2)CC1 [Example 159, 1-{1-[4-[4-(4-Methylsulfonyl-1-piperazinyl)butoxy]benzoyl]-4-piperidinyl}-3,4-dihydrocarbostyril]	0.098 µM	–
COC(=O)N1CCN(CCCCOc2ccc(C(=O)N3CCC(N4C(=O)CCc5ccccc54)CC3)cc2)CC1 [Example 160, 1-{1-[4-[4-(4-Methoxycarbonyl-1-piperazinyl)butoxy]benzoyl]-4-piperidinyl}-3,4-dihydrocarbostyril]	0.22 µM	–
O=C(OCCCCOc1ccc(C(=O)N2CCC(N3C(=O)CCc4ccccc43)CC2)cc1)N1CCN(Cc2ccccc2)CC1 [Example 161, 1-{1-[4-[4-(4-Benzyl-1-piperazinyl)carbonyloxybutoxy]benzoyl]-4-piperidinyl}-3,4-dihydrocarbostyril]	0.45 µM	–
CC(=O)N1CCN(CCCCOc2ccc(C(=O)N3CCC(N4C(=O)CCc5ccccc54)CC3)cc2)CC1 [Example 162, 1-{1-[4-[4-(4-Acetyl-1-piperazinyl)butoxy]benzoyl]-4-piperidinyl}-3,4-dihydrocarbostyril]	0.11 µM	–
O=C(OCCCCOc1ccc(C(=O)N2CCC(N3C(=O)CCc4ccccc43)CC2)cc1)N1CCNCC1 [Example 163, 1-{1-[4-[4-(1-Piperazinyl)carbonyloxybutoxy]benzoyl]-4-piperidinyl}-3,4-dihydrocarbostyril]	0.075 µM	–

Compound	IC50	IC50 (read-out: IC50)
COC(=O)[C@H](CCCCNC(=O)OCc1ccccc1)NC(=O)CCCCCOc1ccc(C(=O)N2CCC(N3C(=O)CCc4ccccc43)CC2)cc1 [Example 165, 1-{1-[4-{5-[(5-Benzyloxycarbonylamino)-1-(S)-methoxycarbonyl]pentylaminocarbonylpentyloxy}benzoyl]-4-piperidinyl}-3,4-dihydrocarbostyril]	0.54 µM	–
COC(=O)[C@H](CCCCN)NC(=O)CCCCCOc1ccc(C(=O)N2CCC(N3C(=O)CCc4ccccc43)CC2)cc1 [Example 166, 1-{1-[4-{5-[5-Amino-1-(S)-methoxycarbonyl]pentylaminocarbonylpentyloxy}benzoyl]-4-piperidinyl}-3,4-dihydrocarbostyril]	0.044 µM	–
CC(C)CCNCCCOc1ccc(C(=O)N2CCC(N3C(=O)CCc4ccccc43)CC2)cc1 [Example 167, 1-{1-[4-(3-Isopentylaminopropoxy)benzoyl]-4-piperidinyl}-3,4-dihydrocarbostyril]	0.28 µM	–
CCOC(=O)NCCCOc1ccc(C(=O)N2CCC(N3C(=O)CCc4ccccc43)CC2)cc1 [Example 168, 1-{1-[4-(3-Ethoxycarbonylaminopropoxy)benzoyl]-4-piperidinyl}-3,4-dihydrocarbostyril]	0.19 µM	–
O=C(c1ccc(OCCCNS(=O)(=O)c2ccccc2)cc1)N1CCC(N2C(=O)CCc3ccccc32)CC1 [Example 169, 1-{1-[4-(3-Phenylsulfonylaminopropoxy)benzoyl]-4-piperidinyl}-3,4-dihydrocarbostyril]	0.17 µM	–
O=C(c1ccc(OCCCCC(O)CNCc2ccccc2)cc1)N1CCC(N2C(=O)CCc3ccccc32)CC1 (centres unmarked) [Example 170, 1-{1-[4-(5-Hydroxy-6-benzylaminohexyloxy)benzoyl]-4-piperidinyl}-3,4-dihydrocarbostyril]	0.039 µM	–
NCC(O)CCCCOc1ccc(C(=O)N2CCC(N3C(=O)CCc4ccccc43)CC2)cc1 (centres unmarked) [Example 171, 1-{1-[4-(5-Hydroxy-6-aminohexyloxy)benzoyl]-4-piperidinyl}-3,4-dihydrocarbostyril]	0.24 µM	–
O=C(c1ccc(OCCCCC(O)CN2CCN(Cc3ccccc3)CC2)cc1)N1CCC(N2C(=O)CCc3ccccc32)CC1 (centres unmarked) [Example 172, 1-(1-[4-(5-Hydroxy-6-(4-benzyl-1-piperazinyl)hexyloxy]benzoyl]-4-piperidinyl)-3,4-dihydrocarbostyril.dioxalate]	0.043 µM	–
O=C(c1ccc(OCCCCC(O)CN2CCNCC2)cc1)N1CCC(N2C(=O)CCc3ccccc32)CC1 (centres unmarked) [Example 173, 1-{1-[4-(5-Hydroxy-6-(1-piperazinyl)hexyloxy]benzoyl]-4-piperidinyl}-3,4-dihydrocarbostyril.dioxalate]	0.039 µM	–
Cc1ccc(S(=O)(=O)NCCCOc2ccc(C(=O)N3CCC(N4C(=O)CCc5ccccc54)CC3)cc2)cc1 [Example 174, 1-{1-[4-(3-p-Toluenesulfonylaminopropoxy)benzoyl]-4-piperidinyl}-3,4-dihydrocarbostyril]	0.49 µM	–
CCOc1ccc(C(=O)N2CCC(n3c(=O)ccc4c(F)cc(F)cc43)CC2)c(OC)c1 [Example 175, 5,7-Difluoro-1-[1-(2-Methoxy-4-ethoxybenzoyl)-4-piperidinyl]carbostyril]	–	0.32 µM
CC(=O)NCC(CCCCOc1ccc(C(=O)N2CCC(N3C(=O)CCc4ccccc43)CC2)cc1)OC(C)=O (centres unmarked) [Example 176, 1-{1-[4-(5-Acetoxy-6-acetylaminohexyloxy)benzoyl]-4-piperidinyl}-3,4-dihydrocarbostyril]	0.13 µM	–
CC(=O)NCC(O)CCCCOc1ccc(C(=O)N2CCC(N3C(=O)CCc4ccccc43)CC2)cc1 (centres unmarked) [Example 177, 1-{1-[4-(5-Hydroxy-6-acetylaminohexyloxy)-benzoyl]-4-piperidinyl}-3,4-dihydrocarbostyril]	0.13 µM	–
CN1CCN(CC(O)CCCCOc2ccc(C(=O)N3CCC(N4C(=O)CCc5ccccc54)CC3)cc2)CC1 (centres unmarked) [Example 178, 1-{1-[4-(5-Hydroxy-6-(4-methyl-1-piperazinyl)hexyloxy]benzoyl]-4-piperidinyl}-3,4-dihydrocarbostyril]	0.045 µM	–
CN(C)CCCCc1ccc(C(=O)N2CCC(N3C(=O)CCc4ccccc43)CC2)cc1 [Example 180, 1-{1-[4-(4-Dimethylaminobutyl)benzoyl]-4-piperidinyl}-3,4-dihydrocarbostyril]	0.4 µM	–
CC(=O)NCC(=O)NCCCOc1ccc(C(=O)N2CCC(N3C(=O)CCc4ccccc43)CC2)cc1 [Example 181, 1-{1-[4-(3-Acetylaminoacetylaminopropoxy)benzoyl]-4-piperidinyl}-3,4-dihydrocarbostyril]	0.23 µM	–
CCCC(NC(C)=O)C(=O)NCCCOc1ccc(C(=O)N2CCC(N3C(=O)CCc4ccccc43)CC2)cc1 (centres unmarked) [Example 182, 1-{1-[4-(3-[2-(Acetylamino)valerylamino]propoxy)benzoyl]-4-piperidinyl}-3,4-dihydrocarbostyril]	0.12 µM	–
